Source: ChEMBL document CHEMBL3588788, “Structure-activity relationship of hybrids of Cinchona alkaloids and bile acids with in vitro antiplasmodial and antitrypanosomal activities” (Eur J Med Chem, 2015)

Legend:
[1] = Cytotoxicity against human WI38 cells assessed as inhibition of cell growth at 20 ug/ml by MTT assay; format: cell-based, WI-38
[2] = Cytotoxicity against human WI38 cells assessed as inhibition of cell growth at 100 ug/ml by MTT assay; format: cell-based, WI-38
Plasmodium falciparum [3] = experiment: Antiplasmodial activity against Plasmodium falciparum 3D7 assessed as inhibition of parasite viability at 20 ug/ml by parasite lactate dehydrogenase assay; format: functional
Plasmodium falciparum [4] = experiment: Antiplasmodial activity against Plasmodium falciparum 3D7 assessed as inhibition of parasite viability at 100 ug/ml by parasite lactate dehydrogenase assay; format: functional
Plasmodium falciparum [5] = experiment: Antiplasmodial activity against Plasmodium falciparum 3D7 assessed as reduction in parasite viability by parasite lactate dehydrogenase assay; format: functional, organism-based
[6] = test system: Trypanosoma brucei brucei; experiment: Antitrypanosomal activity against Trypanosoma brucei brucei Lister 427 bloodstream forms assessed as inhibition of parasite growth at 20 ug/ml by microtiter plate based assay; format: functional
[7] = test system: Trypanosoma brucei brucei; experiment: Antitrypanosomal activity against Trypanosoma brucei brucei Lister 427 bloodstream forms assessed as inhibition of parasite growth at 100 ug/ml by microtiter plate based assay; format: functional
[8] = test system: Trypanosoma brucei brucei; experiment: Antitrypanosomal activity against Trypanosoma brucei brucei Lister 427 bloodstream forms by microtiter plate based assay; format: functional, organism-based
[9] = Cytotoxicity against human WI38 cells by MTT assay; format: cell-based, WI-38
[10] = test system: Trypanosoma brucei brucei; experiment: Potency index, ratio of IC50 for QN to IC50 for test compound against Trypanosoma brucei brucei Lister 427 bloodstream forms by microtiter plate based assay; format: functional
Plasmodium falciparum [11] = experiment: Potency index, ratio of IC50 for QN to IC50 for test compound against Plasmodium falciparum 3D7 by parasite lactate dehydrogenase assay; format: functional
in vitro = conditions: human, WI38 cells
Description: Selectivity index, ratio of IC50 against human WI38 cells to IC50 for Trypanosoma brucei brucei Lister 427 bloodstream forms

[12] = Selectivity index, ratio of IC50 against human WI38 cells to IC50 for Plasmodium falciparum 3D7; format: toxicity, cell-based, WI-38; conditions: read-out: Ratio IC50
[13] = Homo sapiens, WI-38, read-out: IC50

Structure (SMILES)	inhibition at 20 ug/ml [1] [%]	inhibition at 100 ug/ml [2] [%]	inhibition at 20 µg/mL (Plasmodium falciparum [3]) [%]	inhibition at 100 µg/mL (Plasmodium falciparum [4]) [%]	IC50 (Plasmodium falciparum [5]) [µM]	inhibition at 20 µg/mL [6] [%]	inhibition at 100 µg/mL [7] [%]	IC50 [8] [µM]	IC50 [9, 13] [µM]	Ratio IC50 [10]	Ratio IC50 (Plasmodium falciparum [11])	selectivity ratio (in vitro)	selectivity ratio [12]	IC50 ([9]; wi-38)
CC(=O)O[C@@H]1CC[C@@]2(C)[C@H](CC[C@@H]3[C@@H]2CC[C@]2(C)[C@@H]([C@H](C)CCC(=O)O)CC[C@@H]32)C1	27	98	70	100	59.5	15	100							
CC(=O)O[C@@H]1CC[C@@]2(C)[C@@H](C1)C[C@@H](OC(C)=O)[C@@H]1[C@@H]2CC[C@]2(C)[C@@H]([C@H](C)CCC(=O)O)CC[C@@H]12	57	98	59	90	21	99	100	12.5	16.8					
CC(=O)O[C@@H]1CC[C@]2(C)[C@H]3CC[C@]4(C)[C@@H]([C@H](C)CCC(=O)O)CC[C@H]4[C@@H]3C[C@H](OC(C)=O)[C@@H]2C1	20	98	73	97	32.7	81	100	16.3						
CC(=O)O[C@@H]1CC[C@@]2(C)[C@@H](C1)[C@@H](OC(C)=O)[C@@H](OC(C)=O)[C@@H]1[C@@H]2CC[C@]2(C)[C@@H]([C@H](C)CCC(=O)O)CC[C@@H]12	9	96	88	97	8.1	83	100	5.6						
CC(=O)O[C@@H]1CC[C@@]2(C)[C@H](CC[C@@H]3[C@@H]2C[C@H](OC(C)=O)[C@]2(C)[C@@H]([C@H](C)CCC(=O)O)CC[C@@H]32)C1	10	98	82	100	30.5	36	100							
CC(=O)O[C@@H]1CC[C@@]2(C)[C@@H](C1)C[C@@H](OC(C)=O)[C@@H]1[C@@H]2C[C@H](OC(C)=O)[C@]2(C)[C@@H]([C@H](C)CCC(=O)O)CC[C@@H]12	12	29	68	100	22.5	15	100							
C=C[C@H]1CN2CC[C@H]1C[C@H]2[C@H](O)c1cc(CC[C@@H](C)[C@H]2CC[C@H]3[C@@H]4[C@H](O)[C@H](O)[C@@H]5C[C@H](O)CC[C@]5(C)[C@H]4CC[C@]23C)nc2ccc(OC)cc12					0.275			0.76	5.55	27.8	2.3	7.3	20	
C=C[C@H]1CN2CC[C@H]1C[C@H]2[C@H](O)c1cc(CC[C@@H](C)[C@H]2CC[C@H]3[C@@H]4CC[C@@H]5C[C@H](O)CC[C@]5(C)[C@H]4C[C@H](O)[C@]23C)nc2ccc(OC)cc12					0.241			0.64	5.2	33.3	2.6	8.2	22	
C=C[C@H]1CN2CC[C@H]1C[C@H]2[C@H](O)c1cc(CC[C@@H](C)[C@H]2CC[C@H]3[C@@H]4[C@H](O)C[C@@H]5C[C@H](O)CC[C@]5(C)[C@H]4C[C@H](O)[C@]23C)nc2ccc(OC)cc12					1.82			1.57	19.3	13.5	0.3	12.3	11	
C[C@@H]1CC[C@H]2[C@@H](C)C(=O)O[C@@H]3O[C@@]4(C)CC[C@@H]1[C@]32OO4 [ARTEMISININ]					0.0362									Not Active
CC[C@@]1(O)C(=O)OCc2c1cc1n(c2=O)Cc2cc3ccccc3nc2-1 [CAMPTOTHECIN]									0.23					
C[C@H](CCC(=O)O)[C@H]1CC[C@H]2[C@@H]3[C@H](O)C[C@@H]4C[C@H](O)CC[C@]4(C)[C@H]3CC[C@]12C [CHENODIOL]	27	94	77	98	18.9	11	100							
C[C@H](CCC(=O)O)[C@H]1CC[C@H]2[C@@H]3[C@H](O)C[C@@H]4C[C@H](O)CC[C@]4(C)[C@H]3C[C@H](O)[C@]12C [CHOLIC ACID]	6		56	83	133	20	24							
C=C[C@H]1CN2CC[C@H]1C[C@H]2[C@H](O)c1ccnc2ccccc12 [CINCHONIDINE]					0.963				> 68				> 71	
C=C[C@H]1CN2CC[C@H]1C[C@@H]2[C@@H](O)c1ccnc2ccccc12 [CINCHONINE]					0.292			> 68	> 68				> 222	
C[C@H](CCC(=O)O)[C@H]1CC[C@H]2[C@@H]3CC[C@@H]4C[C@H](O)CC[C@]4(C)[C@H]3C[C@H](O)[C@]12C [DEOXYCHOLIC ACID]	9	50	59	100	93.6	2	100							
C[C@H](CCC(=O)O)[C@H]1CC[C@H]2[C@@H]3[C@H](O)[C@H](O)[C@@H]4C[C@H](O)CC[C@]4(C)[C@H]3CC[C@]12C [HYOCHOLIC ACID]	18		54	92	109	7	64							
C[C@H](CCC(=O)O)[C@H]1CC[C@H]2[C@@H]3C[C@H](O)[C@@H]4C[C@H](O)CC[C@]4(C)[C@H]3CC[C@]12C [HYODEOXYCHOLIC_ACID]	21	22	67	97	40.9	1	94							
C[C@H](CCC(=O)O)[C@H]1CC[C@H]2[C@@H]3CC[C@@H]4C[C@H](O)CC[C@]4(C)[C@H]3CC[C@]12C [LITHOCHOLIC ACID]	22	98	85	100	26.9	5	100							
C=C[C@H]1CN2CC[C@H]1C[C@@H]2[C@@H](O)c1ccnc2ccc(OC)cc12 [QUINIDINE]					0.194				34.8					
C=C[C@H]1CN2CC[C@H]1C[C@H]2[C@H](O)c1ccnc2ccc(OC)cc12 [QUININE]					0.633				20.2			1		
